Patent US7208154B2, “Methods and compositions for the treatment of MHC-associated conditions” (Regents of the University of Michigan, priority 2002, dated 2007)
No end group written: not given here.

Assays:
[1] = system: Total cellular protein extracts; assay: Peptide affinity chromatography of total cellular protein extracts; format: binding; settings: total cellular protein extracts loaded
From the text: Total cellular protein extracts were loaded onto columns of Sepharose beads, conjugated with either shared epitope-containing peptide 65–78*0404 [SEQ ID NO: 28] or the control peptide 65–78*0402 [SEQ ID NO: 8]. Bound proteins were eluted at low pH. […] 11 sequenced bands matched intracellular proteins, and only two sequences matched previously identified cell surface proteins: heat shock protein 60 (HSP60) and calreticulin. Both calreticulin and HSP60 are chaperones, with strong tendency to form hetero-complexes.

calreticulin [2] = target: T1, calreticulin (Homo sapiens, UniProt P27797); assay: Peptide affinity column binding of purified recombinant calreticulin; settings: immunoblot of eluate
T1 sequence (P27797 18-417): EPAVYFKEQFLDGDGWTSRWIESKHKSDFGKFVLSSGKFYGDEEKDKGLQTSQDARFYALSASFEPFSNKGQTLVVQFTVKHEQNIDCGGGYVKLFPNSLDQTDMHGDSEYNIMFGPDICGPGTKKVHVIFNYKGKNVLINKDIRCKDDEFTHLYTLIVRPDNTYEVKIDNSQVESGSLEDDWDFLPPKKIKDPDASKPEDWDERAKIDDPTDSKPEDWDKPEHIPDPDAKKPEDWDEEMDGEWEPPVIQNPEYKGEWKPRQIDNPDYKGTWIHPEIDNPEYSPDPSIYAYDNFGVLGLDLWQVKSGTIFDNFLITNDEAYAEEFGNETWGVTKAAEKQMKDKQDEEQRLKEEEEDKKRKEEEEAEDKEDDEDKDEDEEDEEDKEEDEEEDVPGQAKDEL

[3] = system: human fibroblastoid line M1 cells
From the text: To further determine the signaling pathways involved in DNA repair induction, the inventors used the Trevigen CometAssay™ kit (Cat. No. 4250-50-K). The CometAssay is a single-cell gel electrophoresis method that can measure a variety of types of DNA damage, and repair of damage, in individual cells. The assay is based on the alkaline lysis of labile DNA at sites of damage. The unwound, relaxed DNA is able to migrate out of the cell during electrophoresis and can be visualized by SYBR Green staining.
To quantify DNA damage, cells were collected and three parallel samples were processed (a negative control, a DNA damage control (H2O2) and a sample subjected to H2O2 following exposure to various modulators of the cAMP signaling pathway). Cells are then washed in PBS. The washed cells are combined with molten low-melting agarose (Trevigen Cat. No. 4250-50-02) and transferred to a CometSlide™ (Trevigen Cat. No. 4250-100-03). The slides are immersed in lysis buffer for 30 min, on ice, in the dark. The slides are then treated with alkali buffer for 20 to 60 min at room temperature in the dark. The slides are then electrophoresed in buffer for 10 min at 20 volts, then fixed in methanol and ethanol. The slides are then stained with SYBR green (Trevigen Cat. No. 4250-50-05) solution and fluorescently imaged with a Diagnostic Instruments digitized camera, mounted on a Nikon Eclipse E400 microscope. Scion Image software is used to quantitate the comet tail intensity. Each data point is derived from tail fluorescent intensity determination in 50–100 individual cells. Data is presented as % DNA repair (the percent decrement in tail fluorescence intensity in agonist or antagonist-treated cells, relative to the intensity recorded in cells treated with H2O2 only)±SEM. (R.U.s)
To directly examine that possibility, cells were incubated overnight with synthetic peptides corresponding to the region contained within amino acids 65–79 and their ability to mount DNA repair activity in response to cAMP-elevating agents was determined. M1 cells were preincubated overnight with 50 μg/ml of synthetic peptides corresponding to the region surrounding the third allelic hypervariable region (aa 65–79) of each of the following DRβ chains: *0401 (65–79*0401) [SEQ ID NO: 5], *0402 (65–79*0402) [SEQ ID NO: 7], *0403 (65–79*0403) [SEQ ID NO: 9] or *0404(65–79*0404) [SEQ ID NO: 10]. At the end of the preincubation, cells were collected, washed and 2CA-induced DNA repair was determined as above. Table 3 (above) lists the different third allelic hypervariable region peptides used in the entire study disclosed here.
A modified method as described previously by Auger et al. [Nature Med 2:306–310 1996] was used. Briefly, cyanogen bromide activated Speharose 4B (1.5 ml) was washed with 1 mM HCl and incubated with peptides in 0.1 M NaHCO3 and 0.5 M NaCl (pH 8) buffer overnight at 4° C. For each peptide, 5 mg was used per milliliter of Sepharose. Free Sepharose groups were blocked with 0.2 M glycine (pH 8) for 2 hours at room temperature. Columns were washed at 4° C. with the following buffers: 0.1 M NaHCO3, 0.5 M NaCl (pH 8) buffer, then 0.5 M CH3COONa (pH 4) buffer and finally PBS at pH 7.5. M1 cells were plated at a density of 0.5×10^6 cells per well (6 well plate) in 10% FBS DMEM medium until 70–80% confluence. Prior to incubation with peptides, cultures were changed to serum-free DMEM medium, then evenly overlaid with 50 μg bead conjugated peptides, and incubated for the indicated period. Soluble peptides were added overnight to M1 cells at a concentration of 50 μg/ml.

M1 cells = assay: cGMP level (enzyme immunoassay) in M1 cells; format: cell-based, human; settings: M1 cells exposed to 50 μg/ml soluble peptide
Procedure: cGMP was determined using an Amersham Pharmacia Biotech cGMP enzymeimmunoassay (EIA) system (Code RPN 226). The reagents (lysis reagents, standards, antibody, cGMP conjugate and wash buffer) are all prepared according to the manufacturer's instructions. Briefly, samples are acetylated with acetylation reagent (acetic anhydride in triethylamine) and then incubated with the antibody reagent and lysis buffer according to the manufacturer's instructions. The cGMP conjugate is then added and the microtiter plate is incubated according to the manufacturer's instructions. The wells are aspirated and washed, enzyme substrate is added and incubated, and the plate can be read at 630 nm or 450 nm (depending on the length of incubation and how the reaction was terminated). Controls are carried out as recommended by the manufacturer, and the results are calculated according to the manufacturer.
D.) cGMP levels in M1 cells were determined as described above using an enzyme immunoassay kit (Pharmacia) at different time points following exposure to 50 μg/ml of soluble 65–78*0401 [SEQ ID NO: 6] or 65–78*0402 [SEQ ID NO: 8] peptides.

[4] = system: hybrid neuroblastoma-glioma NG108–15 cell line; assay: Neuroprotection in acutely stressed NG108–15 cells; format: cell-based
Procedure: In order to assess whether shared epitope-containing peptides exert a neuroprotective effect, preliminary experiments were carried out with the hybrid neuroblastoma-glioma NG108–15 cell line. Cells (10^5/ml) were first cultured overnight at near-confluence in 24-well plates in DMEM medium supplemented with 1% fetal calf serum (FCS). Under these conditions, NG108–15 cells show a flat, multipolar morphology and neurite formation. After 20 hours, cells were stressed acutely in serum-free medium (by aspiration of the medium and replacement with serum-free DMEM) with 50 μg/ml of peptides and evaluated morphologically at different time points thereafter. […] Morphological differences between cultures treated with different peptides could be observed as early as 5–6 hrs after treatment. The photographs shown were taken at the 24 hr time point. In another experiment (FIG. 12C), NG108–15 cells were cultured at low cell density (2×10^4/ml) in 1% FCS-containing DMEM medium overnight. The next day cells were subjected to acute stress in serum-free and low glucose (RPMI1640) medium (after aspiration of the 1% FCS DMEM) in the presence of 50 μg/ml of either 65–78*0401 [SEQ ID NO: 6] or 65–78*0402 [SEQ ID NO: 8] peptides. After 72 hours, cells were fixed with 1% formaldehyde and inspected microscopically. Mean±SEM was determined by averaging cell counts in eight randomly-selected microscopic fields in 200× magnification. Neurite-positive cells were defined as cells with one or more projections extending at least twice as long as the cell diameter. […] (FIG. 12C). The calculated number of neurite-positive cells was over 6-fold higher in shared epitope-containing peptide-cultured cells. When cultured in the presence of lysophosphatidic acid or high concentrations of serum, neuronal cells undergo neurite retraction (130). […] Thus, it is concluded that shared epitope-containing peptides may exert neuroprotective effects.

calreticulin [5] = assay: Calreticulin cell surface expression in M1 cells (Western-blot, flow cytometry); format: cell-based, human; settings: 0.2 μM oligonucleotide, 24 to 48 hr, Lipofectin
Procedure: (§1) M1 cells were cultured in 6-well plate to 60–70% confluency. M1 cells were treated by 0.2 μM antisense oligonucleotide for 24 to 48 hr, using Lipofectin as a carrier. Calreticulin expression levels were determined by Western-blot and flow cytometry, using anti-calreticulin antibodies. Polyclonal rabbit anti-human calreticulin antibodies were obtained from ABR, Golden, CO.

calreticulin [6] = target: T1, calreticulin; assay: Blocking of shared epitope peptide-triggered signaling (cAMP-inhibitory effect, genoprotection) in M1 cells; format: cell-based; set-up: endogenous in cells; host or cells: M1 human fibroblastoid cells; settings: M1 cells pre-incubated or transfected
Procedure: Finally, in order to determine whether these neuroprotective peptides transduce their signaling through calreticulin, two complementing protocols were executed: i) Inhibition of peptide-calreticulin interaction using anti-calreticulin antibodies, or ii) blocking calreticulin expression with antisense oligonucleotides (as shown in FIG. 13C and FIG. 13D).
as §1

KDLLEQRRAAVDTY [65–78*0404, synthetic peptide corresponding to amino acids 65–78 of the β chain encoded by the HLA-DRB*0404 allele]
Protein binding: distinct bands in low pH eluates of peptide-conjugated Sepharose column [1]: ~20
Binding of recombinant human calreticulin to peptide affinity column (calreticulin [2]): specifically bound

KDLLEQKRAAVDTY-NH2 [65–78*0401]
IC50 [3]: ~250 nM
cGMP levels (M1 cells): triggered increased cGMP levels
Inhibition of neurite retraction effect of 10% FCS ([4]; data not shown): inhibited the neurite retraction effect
Survival rate versus control peptide 65–78*0402 ([4]; low density, serum-free low glucose medium, 50 μg/ml, 72 hours, p<0.0005): significantly higher survival rate
Percentage of neurite-positive cells versus control peptide 65–78*0402 ([4]; low density, serum-free low glucose medium, 50 μg/ml, 72 hours, p<0.001): higher percentage of neurite-positive cells
Cell morphology after acute serum-free stress ([4]; near-confluent NG108–15, 50 μg/ml peptide, 24 hr): greater preservation of the multipolar flat cell morphology with neurites
Calculated number of neurite-positive cells, fold higher than control peptide ([4]; serum-free low glucose medium, 50 μg/ml, 72 hours): over 6 fold

5′-GGATAGCAGCATGGCGGGCCG-3′ (listed as DNA, chemistry not given here) [calreticulin antisense oligonucleotides, calreticulin antisense oligonucleotide synthesized by Operon]
Inhibition of calreticulin cell surface expression (calreticulin [5]): inhibited cell surface expression
Block of shared epitope peptide-triggered signaling / inhibitory effect on genoprotection (calreticulin [6]): blocked peptide-triggered signaling
